# “And” between values parts separate entries of the source, which are not always exact repeats. Equal entries are not always repeated.
# Legend:
# [1] = Pharmacokinetic study, intravenous; format: in vivo; conditions: mouse, plasma, male Balb/c mice, i.v. 2.5 mg/kg b.w. single dose
# Description: Pharmacokinetic (PK) Study. Healthy male Balb/c mice (25-30 grams each) were taken to access the PK profile of 5. There were 11 time points for blood collection and 6 animals were there in each sampling time point for maintaining accuracy of the experiment. Animals were administered with 5, intravenously (2.5 mg/kg, b.w.) and control mice were administered with normal saline. A minimum of 100 μL of plasma was collected from each animal at different time points, viz: (0.083, 0.25, 0.5, 1, 2, 4, 6, 8, 12, 16 and 24 h) after dosing with 5 and then acetonitrile (ACN) 400 μL was added to it to precipitate the plasma proteins. The compound was extracted into the solvent, filtered and analyzed by a 6410B Triple quadrupole LC-MS/MS system (Agilent Technologies, USA). Quantification was performed through multiple reaction monitoring (MRM) separately for all the six samples collected individually at each time point by comparing with the standard calibration curve prepared using Agilent Mass Hunter software (version B.04.00). Various PK parameters like; half life (t1/2) (h), C initial C0 (ng/ml), area under the curve AUC(0-∞) (ng*h/ml), Vd (L/kg), Cl (L/h/kg) and Mean Residence Time (h) were calculated using non-compartmental pharmacokinetic data analysis. […] The pharmacokinetic parameters of compound 5 further provide evidence that the molecule has its very good absorption and biodistribution capability through i.v. route of administration.
# MDA-MB-231 cells = test: Cell scattering assay (bFGF stimulated); format: cell-based, human; conditions: bFGF plus 200 nM, 48 h, vs bFGF alone
# Description: (§1) Cell Scattering Assay. The procedure was followed according to the previously described method (Amin et al., 2015, Mol. Carcinog). Briefly, MDA-MB-231 and MCF7 cells were trypsinized, seeded in 6 well plates at a density of 1000 cells/well and incubated for 5 days for the formation of small colonies. On the sixth day, exhausted media was replaced by fresh media and cells were stimulated with bFGF (20 ng/mL) along with 5 (200 nM) or doxorubicin for 48 h. Cells were then washed with PBS and photographs were taken under inverted microscope at 20× magnification.
# MCF7 cells = test: Cell scattering assay (bFGF stimulated); format: cell-based, human; conditions: bFGF plus 200 nM, 48 h, vs bFGF alone
# Description: as §1
# MMP-9 = test: Immunoblotting, expression of MMP-9; format: cell-based, human; conditions: MDA-MB-231 cells; dose dependent
# Description: (§2) Immunoblotting. MDA-MB-231 and MCF7 cells (0.5×10^6) were plated in six well plates for overnight in a humidified CO2 incubator and then exposed to varying concentrations of 5 (50, 100 and 200 nM) for 24 h along with vehicle (dose dependent study) and 200 nM of 5 for various time points like; 0, 6, 12, 24 and 48 h (time dependent study). Cells were then harvested, washed with chilled PBS and lysed with lysis buffer (HEPES 1 mM, KCl 60 mM, NP-40 0.3%, EDTA 1 mM, DTT 1 mM, sodium orthovanadate 1 mM, PMSF 0.1 mM and cocktail protease inhibitor). The cell extractions were centrifuged at 12,000 rpm for 10 min at 4° C. Protein concentration was measured by the standard Bradford method. An equal amount (20 μg) of protein from each sample was subjected to SDS-PAGE, and proteins were transferred to PVDF membranes (PALL), blocked with 5% (w/v) non-fat milk in PBS containing 0.1% Tween-20, probed with relevant antibodies (1:1000 dilution) for 3 h at room temperature or overnight at 4° C., and subsequently washed and probed with species-specific secondary antibodies coupled to horseradish peroxidase. Immunoreactive proteins were detected by Enhanced Chemiluminescence Plus (Thermo) (Rah et al., 2012, PloS one, 7(9), p.e44039.).
# TIMP-1 = test: Immunoblotting, expression of TIMP-1; format: cell-based, human; conditions: MDA-MB-231 cells; dose dependent
# Description: as §2
# GRP78 = test: Immunoblotting, expression of GRP78; format: cell-based, human; conditions: for expression of intracellular GRP78 (time dependent study): 200 nM
# Description: as §2
# Drug Potentiation Assay. Briefly, MDA-MB-231 cells were exposed to 200 nM of compound 5, 200 nM of doxorubicin alone and/or combination of both (1:1 ratio) for 48 h in cell viability (MTT) assay, for 5 days in a colony formation assay and subjected to western blotting for the expression of GRP78 and Par-4. The ability of 5 to enhance cell killing was expressed as potentiation index (PI), which was the ratio of the […]. Thus, PI>1 indicates potentiation and PI<1 indicates protection.
# [2] = system: mouse mammary carcinoma (4T1) cells; format: in vivo
# Description: In Vivo Anti-Tumor and Anti-Metastatic Efficacy Studies. To evaluate the antitumor and antimetastatic effect of 5 in vivo, healthy female Balb/c mice (b.w. 18-23 g) were taken. The experimental protocols were approved by the Institutional Animal Ethics Committee, CPCSEA, of Indian Institute of Integrative Medicine, Jammu. The animals were maintained at 22° C. with a 12 h light-dark cycle and free access to feed and water inside the institutional animal house. Proper care was taken to maintain them in a healthy condition and to avoid any risk of possible pathogenic contaminations. For subcutaneous implantation, the mice were randomized into two groups of 5 mice per group and 1.5 million mouse mammary carcinoma (4T1) cells in serum free RPMI media were injected subcutaneously into the mammary fat pad of each mouse. Either 1 week after the tumor cell implantation or when the tumor volume reached ˜150 mm^3, mice were injected intraperitoneally with either normal saline (NS) or parent compound 1 (100 mg/kg, b.w.) or 5 (30 mg/kg, b.w.) in each alternate days for two weeks. Tumor size was recorded on each alternate days post-cell injection and body weights were recorded once per week. Mice were sacrificed on the 15th day of treatment initiation and tumors were incised for its measurement. Metastatic lung nodules were counted using a dissecting microscope. Lungs were then minced into fine pieces, suspended in medium containing collagenase and kept in 37° C. incubator with vigorous shaking for 2 h. The suspension was then filtered with the help of 70 μm cell strainer (BD, USA) to get the single cell suspension. Then, the suspension was serially diluted for 3-4 times in selection medium containing 6-thioguanine, for the selection of 4T1 cells. Each dilution containing the lung cell suspension was then plated into individual petridishes and incubated at 37° C. and 5% CO2 for the growing of 4T1 cell colonies. After 15 days of incubation, cells were washed with PBS, fixed with methanol and stained with 0.2% crystal violet solution for 1 h. Images of the 4T1 colonies were observed, counted and photographed under an inverted microscope at 20× magnification.
smiles,measurement,setting,value
"CCCCCCCC(c1oc(CO)cc(=O)c1O)c1c[nH]c2ccccc12 (stereo not drawn) [Compound 5, 2-{1-(1H-indol-3-yl)octyl}-3-hydroxy-6-(hydroxymethyl)-4H-pyran-4-one]",AUC(0-t),[1]; read-out: Area under curve (AUC0-t),0.395 µg·h/mL
same,AUC(0-inf),[1]; read-out: Area under curve (AUC0-∞),0.406 µg·h/mL
same,C0,[1]; read-out: C initial (C0),1.22 µg/mL
same,clearance,[1]; read-out: Clearance (Cl) (converted),12.3 L/h/kg
same,half-life,[1]; read-out: Half life (t1/2) (converted),25.8 min
same,MRT,[1]; read-out: Mean residence time (MRT),27 min
same,Vd,[1]; read-out: Volume of distribution (Vd),7.61 L/kg
same,cell scattering inhibited,MDA-MB-231 cells,80%
same,cell scattering inhibited,MCF7 cells,84.5%
same,expression of MMP-9,MMP-9,downregulated
same,expression of TIMP-1,TIMP-1,induced significantly
same,expression of intracellular GRP78 (time dependent study),GRP78; 24 h time point,consistent decrease
same,expression of intracellular GRP78 (time dependent study),GRP78; 48 h time period,almost vanished
same,expression of GRP78 (dose dependent study),"GRP78; 100 and 200 nM, 24 h, MDA-MB-231 and MCF7 vs vehicle",steady downregulation
same,decrease in the expression of GRP78,"GRP78; MDA-MB-231, 5 and doxorubicin in combination, 24 h, vs each alone, densitometry",5.1 fold
same,decrease in metastatic lung nodules,"[2]; 30 mg/kg b.w. i.p., alternate days for two weeks",84.5%
same,inhibition in tumor growth,"[2]; 30 mg/kg b.w. i.p., alternate days for two weeks, vs normal saline",79.2% and 67%
same,colony formation by 4T1 cells in lung suspension,"[2]; 30 mg/kg b.w., compared to 1 and vehicle treated animals",inhibited drastically

# — patent US11180486B2, “Indolylkojyl methane analogues, process of preparation thereof and use as inhibitor of cancer cells invasion and metastasis” (Council of Scientific & Industrial Research, priority 2017, dated 2021)
